# Experimental data reported in US20230365516A1, “COMPOUNDS FOR CANCER THERAPY AND IMAGING” (Washington University, priority 2020, published 2023).
# “Also recorded” adds a separate entry of the source. Where two headings read alike, the source gives them in different places.
# Experiments:
# MM.1S cells [1] = experiment: Cell viability assay (CellTiter-Glo), MM.1S cells; type: cell-based, human; settings: for EC50: MM1.S
# Description: (§1) Cell culture and Reagents: Human MM cell lines MM1.S, U266, and OPM2 were cultured in RPMI-1640 medium supplemented with 10% fetal bovine serum, 100 units/mL penicillin, 100 µg/mL streptomycin at 37° C., 5% CO2. PBMCs were purchased from Lonza Bioscience, USA and maintained overnight in RPMI-1640 medium supplemented with 10% fetal bovine serum, 100 units/mL penicillin, 100 µg/mL streptomycin at 37° C., 5% CO2 before using for experiments. IL-6 and IGF-1 were purchased from R&D Systems. PD98059 was obtained from Cell Signaling Technology. Z-VAD-FMK was purchased from Santa Cruz. Bortezomib was obtained from Sigma. LS1090 [2-((7-nitrobenzo[c][1,2,5]oxadiazol-4-yl)thio)ethyl (3-(trifluoromethyl)phenyl)carbamate] was purchased from MolPort, Inc.M. Maybridge library was purchased from Thermo Fisher Scientific, NeXT Diversity 3500 and Diversity SAR 3500 sets were gifts from NCI.
# (§2) Cell viability assay: Twenty thousand MM1.S, U266, OPM2, and PBMCs in 100 µL of growth media were added per well in a 96-well plate. The cells were incubated for 24 h with serial dilutions of LS1090 stock solution (10 mM in DMSO) or BTZ stock solution (1 mM in DMSO). Dilutions were prepared in growth media. Cells viability was assessed using the CellTiter-Glo luminescence-based assay (Promega). After adding 100 µL CellTiter-Glo reagent, relative luminescence units (RLU) were measured using the Synergy2 plate reader (BioTek) and expressed as a percentage of the untreated cell controls.
# [2] = system: MM1.S-GFP-Luc disseminated MM xenograft
# Description: MM1.S cells stably transfected with GFP-firefly Luciferase (MM1.S-GFP-Luc), when administered intravenously (IV) in Fox Chase SCID beige mice, home to the bone marrow (BM) and are readily detectable by bioluminescence imaging (BLI) after 15-21 days from inoculation. On the third week from tumor inoculation, detecting the presence of the MM lesions in BM in mice with BLI photon flux of 106, we initiated therapy.
# The mice were subjected to four dosages of therapy in two days apart over two weeks. The therapy were stopped after four dosages and the tumor progression over time was monitored by in vivo BLI once a week. […] Paralysis or loss of 15% of the original weight were taken as criteria of end point of the mice.
# Each treated mouse received two doses per week separated by 3 days over two weeks for a total of four dosages, and BLI was used to monitor tumor progression. […] The endpoint for the study includes paralysis, loss of 20% of the original weight or sudden death due to the tumor burden before any other symptom appeared.
# Fox Chase SCID Beige mice (From in house colony) (8-10 weeks old) were implanted with MM1.S cells stably transfected with GFP and CBR Luciferase (MM1.S-GFP-Luc) (2 million cells in 100 µL DPBS per mouse) by tail vein injection. […] The progression of tumor was monitored by whole-body BLI once a week post tumor inoculation. […]
# U266 cells [3] = experiment: Cell viability assay (CellTiter-Glo), U266 cells; type: cell-based, human
# Description: as §1, §2
# [4] = system: chymotrypsin-like activity of proteasomes; experiment: Proteasome-Glo Chymotrypsin-Like activity assay in MM.1S cells; type: cell-based, human
# Description: Proteasome activity assays: MM.1S cells were seeded in a white 96-well plate at a density of 20000 per well. Cells were treated with 1 µML LS1090 or 100 nM Bz for 4 h before accessing chymotrypsin-like activity using Proteasome-Glo™ Chymotrypsin-Like, (Promega). After adding the Proteasome-Glo™ reagent, luminescence was determined as relative light units (RLU) using the Synergy2 plate reader (BioTek).
# MM.1S cells [5] = experiment: RealTime-Glo Annexin V Apoptosis and Necrosis Assay, MM.1S cells; type: cell-based, human
# Excerpt: LS1090 activates ERK1/2 to induce apoptosis in MM cells via a p53-independent pathway: Chemotherapeutics exert their effects via multiple cell death pathways, including apoptosis and necrosis. To determine the dominant mechanism of LS1090-induced MM cell death, RealTime-Glo Annexin V Apoptosis and Necrosis Assay were used, which report both pathways simultaneously. The method reports apoptosis by detecting phosphatidylserine on the outer leaflet of cell membranes and necrosis by measuring plasma membrane integrity. […] This delayed necrosis onset points to a cell death mechanism where pro-apoptosis induction transforms into secondary necrosis when phagocytes are not available to remove apoptotic cells.
# Apoptosis and caspase activation assays: Caspase3/7 activity was measured using Caspase-Glo3/7 Assay System (Promega). MM.1S cells were seeded in a white 96-well plate at a density of 20000 cells per well. […] Caspase-Glo3/7 reagent was added directly to the cells and incubated for 30 min before recording luminescence using the Synergy2 plate reader (BioTek). […] Kinetics of apoptosis and necrosis was monitored using RealTimeGlo Annexin V Apoptosis and Necrosis Assay (Promega). […] The luminescence and fluorescence signals were monitored for 24 h. Relative luminescence units (RLU) and relative fluorescence units (RFU) were measured at different time points using the Synergy2 plate reader (BioTek).
# ERK1/2 = experiment: Western blot of ERK1/2 activation in MM.1S cells; type: cell-based, human
# Description: ERK1/2 signaling plays an essential role in the cascade of apoptosis-mediated cell death. To interrogate its involvement, MM.1S cells were treated with LS1090 and Western blots used to determine ERK1/2 activation. […] Given that ERK1/2 signaling can utilize caspase-dependent or independent pathways to induce apoptosis, LS1090 mediated activation of caspase 3/7 in MM.1S cells was examined in the presence or absence of ERK1/2 activation inhibitor, PD98059. […] The consequential effect of caspase 3/7 activation on cell death was further validated by determining the viability of LS1090-treated MM1.S cells in the presence or absence of the caspase inhibitor, Z-VAD-fmk.
# Cell extract preparation and Western blotting: Protein extracts were prepared by washing cells with PBS (pH 7.4) and suspending in RIPA lysis buffer (20 mM Tris-HCI (pH 7.5), 150 mM NaCl, 1 mM Na2EDTA, 1 mM EGTA, 1% NP-40) containing protease and phosphatase inhibitors (Sigma). Equal amounts of protein, as determined by the BCA protein assay (Thermo Fisher Scientific), were subjected to SDS-PAGE (12% gels; Bio-Rad), followed by transfer to nitrocellulose membrane. […]
# [6] = system: IGR Cap1, HT1080, and MDA MB231; experiment: Viability of selected cancer cell lines after 24 h with LS1090; type: cell-based; settings: 1 µM LS1090, 24 h
# Description: Cells were treated with LS1090 for 24h, followed by assessment of viability using CellTitler-Glow assay. n=4 for each condition.
# Additionally, the viability of selected cancer cell lines were evaluated (IGR Cap1, HT1080, and MDA MB231) after 24 h incubation with LS1090 (see, e.g. FIGS. 9-11).
# caspase 3/7 = experiment: Caspase-Glo3/7 assay in MM.1S cells; type: cell-based, human
# Description: Apoptosis and caspase activation assays: Caspase3/7 activity was measured using Caspase-Glo3/7 Assay System (Promega). MM.1S cells were seeded in a white 96-well plate at a density of 20000 cells per well. Cells were pretreated with 20 µmol/L PD98059 followed by incubation with 1 µM LS1090 for 4 h at 37° C., 5% CO2 before accessing caspase 3/7 activity. Caspase-Glo3/7 reagent was added directly to the cells and incubated for 30 min before recording luminescence using the Synergy2 plate reader (BioTek). Data were represented as a fold change from the untreated cells control. Kinetics of apoptosis and necrosis was monitored using RealTimeGlo Annexin V Apoptosis and Necrosis Assay (Promega). MM.1S cells were treated with 1 µM LS1090 and incubated in the presence of 100 µL the RealTimeGlo Annexin V Apoptosis and Necrosis reagent at 37° C., 5% CO2. The luminescence and fluorescence signals were monitored for 24 h. Relative luminescence units (RLU) and relative fluorescence units (RFU) were measured at different time points using the Synergy2 plate reader (BioTek).
# U266 cells [7] = experiment: RealTime-Glo Annexin V Apoptosis and Necrosis Assay, U266 cells; type: cell-based, human; settings: monitored 24 h
# p53 = experiment: Western blot of p53 expression in MM.1S cells; type: cell-based, human
# Description: (§3) ERK is known to exert its pro-apoptotic function by upregulating p53 and downregulating Bcl-2 expression. […] In contrast, the expression of pro-apoptotic protein, Bax, increased within 1 h post-treatment (FIG. 5H).
# (§4) Cell extract preparation and Western blotting: Protein extracts were prepared by washing cells with PBS (pH 7.4) and suspending in RIPA lysis buffer (20 mM Tris-HCI (pH 7.5), 150 mM NaCl, 1 mM Na2EDTA, 1 mM EGTA, 1% NP-40) containing protease and phosphatase inhibitors (Sigma). Equal amounts of protein, as determined by the BCA protein assay (Thermo Fisher Scientific), were subjected to SDS-PAGE (12% gels; Bio-Rad), followed by transfer to nitrocellulose membrane. Membrane were incubated with 1:1000 anti-ERK1/2 (Thr202/Tyr204, anti-phosphoERK1/2 (Thr202/Tyr204), anti-p53, anti-Bcl2, anti-Bax (Cell Signaling Technology) and anti-βActin (Santa Cruz). Secondary antibodies consisted of horseradish peroxidase-conjugated goat anti-rabbit IgG or goat anti-mouse IgG (Sigma). Detection was done by the enhanced chemiluminescence method (Thermo Fisher Scientific).
# Bax = experiment: Western blot of Bax expression in MM.1S cells; type: cell-based, human
# Description: as §3, §4
# Bcl-2 = experiment: Western blot of Bcl-2 expression in MM.1S cells; type: cell-based, human
# Description: as §3, §4
# 5TGM1 = experiment: Growth inhibition of mouse MM cell line 5TGM1; type: cell-based
# OPM2 cells = experiment: Cell viability assay (CellTiter-Glo), OPM2 cells; type: cell-based; settings: OPM-2, human OPM2 cells
# Description: as §1
# as §2, with “The cells were incubated for 24 h with serial dilutions of LS1090 stock solution (10 mM in DMSO) or BTZ stock solution (1 mM in DMSO). Dilutions were prepared in growth media.” left out
# PBMCs = experiment: Cell viability assay (CellTiter-Glo), nontumor PBMCs; type: cell-based; settings: 24 h incubation, at the EC50/IC50 for MM1.S (0.49 µM) and higher
# Description: Cell culture and Reagents: Human MM cell lines MM1.S, U266, and OPM2 were cultured in RPMI-1640 medium supplemented with 10% fetal bovine serum, 100 units/mL penicillin, 100 µg/mL streptomycin at 37° C., 5% CO2. PBMCs were purchased from Lonza Bioscience, USA and maintained overnight in RPMI-1640 medium supplemented with 10% fetal bovine serum, 100 units/mL penicillin, 100 µg/mL streptomycin at 37° C., 5% CO2 before using for experiments. […] Bortezomib was obtained from Sigma.
compound,measurement,setting,value
"CC(C)C[C@H](NC(=O)[C@H](Cc1ccccc1)NC(=O)c1cnccn1)B(O)O [BTZ, Bortezomib, reference compound]",EC50,"MM.1S cells [1]; Homo sapiens, MM.1S cells, read-out: EC50 of BTZ alone",2 nM
same,EC50 of BTZ with increasing concentration ratio of LS1090 to BTZ,"MM.1S cells [1]; MM.1S cells, in combination with LS1090",1.4 nM
same,"course of disease, BTZ","[2]; 0.5 mg/kg or 1.0 mg/kg IP, same regimen",experienced early remission and relapsed after 6-week post-inoculation
same,toxicity of BTZ dose over 1 mg/Kg,[2]; BTZ over 1 mg/Kg IP,lethal effect on mice after the second dose
same,sensitivity of U266 cells to BTZ relative to MM.1S cells (less sensitive),U266 cells [3]; U266 versus MM.1S,10 fold
same,"chymotrypsin-like activity in MM.1S cells, BTZ","[4]; 0.1 µM, 4 h",efficiently inhibits
"O=C(Nc1cccc(C(F)(F)F)c1)OCCSc1ccc([N+](=O)[O-])c2nonc12 [LS1090, 2-((7-nitrobenzo[c][1,2,5]oxadiazol-4-yl)thio)ethyl (3-(trifluoromethyl)phenyl)carbamate]",time of apoptosis peak post-treatment,MM.1S cells [5]; MM cells treated with LS1090 (1 µM),about 10 h
same,apoptosis-necrosis time pattern,"MM.1S cells [5]; MM.1S cells, monitored 24 h",necrosis lagged apoptosis
same,cells eradicated,"MM.1S cells [1]; LS1090-treated MM1.S cells, absence of Z-VAD-fmk",60%
same,EC50,"MM.1S cells [1]; human MM.1S cells, 24 h, read-out: EC50, MM.1S",490 nM
same,cytotoxicity in the presence of recombinant IL-6 or IGF-1,"MM.1S cells [1]; MM.1S cells, 24 h",neither recombinant IL-6 nor IGF-1 blocked
same,IC50,MM.1S cells [1]; human MM1.S cells,490 nM
same,duration of activated ERK1/2 state,ERK1/2,sustained over 3 h
same,time to ERK1/2 phosphorylation post-treatment,ERK1/2,less than 1 h
same,effect on viability of selected cancer cell lines,[6],had an effect on all tested cancer cell lines
same,cytotoxicity at 1 µM,"U266 cells [3]; Homo sapiens, U-266, 1 µM LS1090, read-out: decrease of viability of U266 cells",55%
same,IC50,"U266 cells [3]; U-266, human U266 cells",440 nM
same,EC50,"U266 cells [3]; U-266, human U266 cells, 24 h",440 nM
same,increase in caspase 3/7 activity,"caspase 3/7; MM.1S cells, 1 µM LS1090, 4 h incubation, fold change from untreated cells",over seven-fold increase
same,apoptosis-necrosis time pattern,U266 cells [7],same apoptosis-necrosis pattern
same,p53 expression after treatment,p53,lack of p53 enhancement
same,time to increased Bax expression post-treatment,Bax,≤ 1 h
same,Bcl-2 expression after treatment,Bcl-2,did not downregulate
same,IC50,"5TGM1; 5TGM1, mouse MM cell line 5TGM",320 nM
same,EC50,5TGM1; mouse MM cell line 5TGM1,320 nM
same,IC50,OPM2 cells,490 nM
same,EC50,OPM2 cells; 24 h,490 nM
same,cytotoxicity on PBMCs,PBMCs,significant toxic effect; also recorded: significant cytotoxicity
same,"chymotrypsin-like activity in MM.1S cells, LS1090",[4]; 4 h incubation at ten-fold the concentration of BTZ,did not significantly perturb
"COc1cccc(-c2cc(=O)c3ccccc3o2)c1N [PD98059, reference compound]",LS1090-triggered caspase 3/7 activity in the presence of PD98059,"caspase 3/7; MM.1S cells pretreated with 20 µmol/L PD98059, then 1 µM LS1090 4 h",inhibited
Z-VAD-fmk [reference compound],LS1090-induced cell death on co-incubation with Z-VAD-fmk,"MM.1S cells [1]; MM1.S cells, p< 0.0001",inhibited this event
